Test results published in ChEMBL document CHEMBL3227918, “Synthesis and pharmacological evaluation of cis-3,4,4a,9a-tetrahydro-1H-pyrano[3,4-b]benzofuran-1-ones. Tricyclic analogues related to the antilipidemic drug clofibrate” (J Med Chem, 1979).

Legend:
Rattus norvegicus [1] = experiment: Antilipidemic activity against Sprague-Dawley rat assessed as liver cholesterol level per gram of tissue at 0.4 mmol/kg, po twice daily for 7 days (reference value: 2.96 +/- 0.42 mg); type: functional
Rattus norvegicus [2] = experiment: Antilipidemic activity against Sprague-Dawley rat assessed as liver triglyceride level per gram of tissue at 0.4 mmol/kg, po twice daily for 7 days (reference value: 3.87 +/- 0.59 mg); type: functional
[3] = molecular target: T1, 3-hydroxy-3-methylglutaryl-coenzyme A reductase (Rattus norvegicus) (UniProt P51639); experiment: Inhibition of Sprague-Dawley rat liver microsome HMG-CoA reductase activity assessed as mevalonic acid formation form DL-3-hydroxy-3-methylglutaryl[3-14C]coenzyme by scintillation counting (reference value: 13.2 +/- 3.30 nmol/mg/h)
T1 sequence (whole entry): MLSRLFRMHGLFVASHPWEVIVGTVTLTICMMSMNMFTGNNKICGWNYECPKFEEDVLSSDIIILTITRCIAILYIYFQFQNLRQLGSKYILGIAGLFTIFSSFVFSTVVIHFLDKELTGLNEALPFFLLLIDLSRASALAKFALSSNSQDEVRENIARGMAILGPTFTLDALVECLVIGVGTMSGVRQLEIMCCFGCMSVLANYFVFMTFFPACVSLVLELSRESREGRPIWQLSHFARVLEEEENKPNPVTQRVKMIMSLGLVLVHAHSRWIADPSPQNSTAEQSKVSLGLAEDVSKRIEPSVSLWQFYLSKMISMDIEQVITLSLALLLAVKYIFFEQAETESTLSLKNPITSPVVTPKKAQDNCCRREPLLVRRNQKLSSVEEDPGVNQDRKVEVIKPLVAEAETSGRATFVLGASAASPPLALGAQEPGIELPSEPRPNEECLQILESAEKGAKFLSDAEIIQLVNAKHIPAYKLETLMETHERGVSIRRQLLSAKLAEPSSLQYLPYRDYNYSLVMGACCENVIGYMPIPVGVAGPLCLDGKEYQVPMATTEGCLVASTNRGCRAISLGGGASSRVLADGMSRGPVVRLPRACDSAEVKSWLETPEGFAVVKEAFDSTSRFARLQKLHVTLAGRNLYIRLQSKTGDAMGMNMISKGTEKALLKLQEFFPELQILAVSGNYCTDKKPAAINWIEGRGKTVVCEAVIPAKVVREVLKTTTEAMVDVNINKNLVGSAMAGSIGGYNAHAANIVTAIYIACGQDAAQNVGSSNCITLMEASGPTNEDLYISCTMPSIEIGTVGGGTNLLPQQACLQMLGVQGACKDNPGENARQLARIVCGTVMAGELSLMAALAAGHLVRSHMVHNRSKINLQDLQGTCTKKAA

Rattus norvegicus [4] = experiment: Antilipidemic activity against Sprague-Dawley rat assessed as increase in liver to body weight at 0.4 mmol/kg, po twice daily for 7 days (reference value: 3.96 +/- 0.20 mg/g); type: functional
Rattus norvegicus [5] = experiment: Effect on liver weight in Sprague-Dawley rat at 0.4 mmol/kg, po twice daily for 7 days (reference value: 11.8 +/- 0.93 g); type: ADME, organism-based; details: in vivo, 168 h
Rattus norvegicus [6] = experiment: Effect on microsomal protein content in Sprague-Dawley rat at 0.4 mmol/kg, po twice daily for 7 days (reference value: 25.8 +/- 1.17 mg/g); type: functional
Rattus norvegicus [7] = experiment: Antilipidemic activity against Sprague-Dawley rat assessed as increase in liver ethylmorphine N-demethylase activity measured as HCHO formation per mg/min at 0.4 mmol/kg, po twice daily for 7 days (reference value: 6.48 +/- 0.70 nmol); type: functional
Rattus norvegicus [8] = experiment: Antilipidemic activity against Sprague-Dawley rat assessed as increase in liver NADPH:cyt c reductase activity at 0.4 mmol/kg, po twice daily for 7 days (reference value: 164 +/- 16.7 nmol/mg/min); type: functional
Rattus norvegicus [9] = experiment: Antilipidemic activity against Sprague-Dawley rat assessed as increase in liver cyt b activity measured per mg of protein at 0.4 mmol/kg, po twice daily for 7 days (reference value: 0.310 +/- 0.052 nmol); type: functional
Rattus norvegicus [10] = experiment: Antilipidemic activity against Sprague-Dawley rat assessed as increase in liver cyt P-450 activity measured per mg of protein at 0.4 mmol/kg, po twice daily for 7 days (reference value: 0.833 +/- 0.0644 nmol); type: functional

Activity [3] [nmol/mg/h]	Activity (Rattus norvegicus [5]) [g]	Compound	Activity (Rattus norvegicus [1]) [mg]	Activity (Rattus norvegicus [2]) [mg]	Activity (Rattus norvegicus [4]) [%]	Activity (Rattus norvegicus [6]) [mg/g]	Activity (Rattus norvegicus [7]) [nmol]	Activity (Rattus norvegicus [8]) [nmol/mg/min]	Activity (Rattus norvegicus [9]) [nmol]	Activity (Rattus norvegicus [10]) [nmol]
11	12.1	O=C1OCC[C@H]2c3cc(Cl)ccc3O[C@@H]12 (relative stereo)	2.93	5.66	4.03	25.2	7.96	210	0.292	0.962
11.3	15.1	CCOC(=O)C(C)(C)Oc1ccc(Cl)cc1 [CLOFIBRATE]	2.59	4.65	4.84	29	7.82	246	0.293	1.06
8.2	14.1	C[C@@]12Oc3ccc(Cl)cc3[C@@H]1CCOC2=O (relative stereo)	3.19	7.75	4.56	31.9	11.1	315	0.421	1.62
